Source: patent US20230027985A1, “SUBSTITUTED HYDANTOINAMIDES AS ADAMTS7 ANTAGONISTS” (Bayer Aktiengesellschaft, priority 2019, published 2023)

Assays:
ADAMTS4 = molecular target: T1, ADAMTS4 (Homo sapiens, UniProt O75173); test: Selectivity assay for ADAMTS-7 modulators (FRET), ADAMTS4; format: biochemical; details: 50 nM enzyme (R&D 4307-AD), 1 μM Dabcyl/Edans FRET substrate, 120 min at 32° C.
T1 construct: purchased R&D 4307-AD
T1 sequence (O75173 213-685 limits assumed): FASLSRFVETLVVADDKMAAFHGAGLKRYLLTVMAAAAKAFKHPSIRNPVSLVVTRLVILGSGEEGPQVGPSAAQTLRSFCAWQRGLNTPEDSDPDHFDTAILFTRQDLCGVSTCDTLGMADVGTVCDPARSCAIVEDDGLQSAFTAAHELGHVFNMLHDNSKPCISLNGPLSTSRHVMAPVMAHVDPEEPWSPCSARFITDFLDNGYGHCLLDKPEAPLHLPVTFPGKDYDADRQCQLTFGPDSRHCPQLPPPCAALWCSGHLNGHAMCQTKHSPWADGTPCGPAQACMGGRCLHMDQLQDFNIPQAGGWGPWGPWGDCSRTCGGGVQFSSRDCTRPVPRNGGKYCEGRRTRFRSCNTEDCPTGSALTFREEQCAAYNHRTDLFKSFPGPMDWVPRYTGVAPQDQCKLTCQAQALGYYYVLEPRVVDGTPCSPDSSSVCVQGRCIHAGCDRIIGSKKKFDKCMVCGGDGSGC
Procedure: The respective enzyme (see table 2 below) was diluted in reaction buffer (50 mM Tris, 2.5 μM ZnCl2, 0.05% BSA, 0.001% Brij, pH 7.5 for ADAM17; 50 mM Tris 7.5, 150 mM NaCl, 10 mM CaCl2, 0.05% Brij for all other enzymes) to the respective concentration and 25 μl were transferred into each well of a 384-well white microtiter plate (Greiner Bio One 781075). 1 μl test compound solution (dissolved in DMSO, at the corresponding concentration) or pure DMSO as a control was added per well. The enzymatic reaction was initiated by addition of 25 μl of the respective concentration of the respective FRET substrate (see table 2 below) in reaction buffer. The microtiter plate was incubated for 120 min at the temperature of 32° C. The increase of fluorescence intensity was measured in appropriate fluorescence plate reader (e.g. TECAN Ultra) using the respective wavelengths for excitation and emission. IC50 values were calculated from percentage of inhibition of enzyme activity as a function of test compound concentration.

[1] = molecular target: T2, Purified recombinant ADAMTS-7 (rat prodomain/human catalytic domain, SEQ ID No. 01 or 02) (Homo sapiens, UniProt Q9UKP4); test: Assay for ADAMTS-7 enzymatic activity (FRET substrate cleavage); format: biochemical; details: FRET substrate SEQ ID No. 11, 120 min at 32° C.; read-out: ADAMTS7-IC50
T2 construct: rat ADAMTS-7 signal peptide + prodomain (rat 1-217, Q1EHB3) (N); 2xStrep tag (C); 6xHis tag (C); made in house; host or cells: Expi293 cells
T2 sequence (Q9UKP4 237-537): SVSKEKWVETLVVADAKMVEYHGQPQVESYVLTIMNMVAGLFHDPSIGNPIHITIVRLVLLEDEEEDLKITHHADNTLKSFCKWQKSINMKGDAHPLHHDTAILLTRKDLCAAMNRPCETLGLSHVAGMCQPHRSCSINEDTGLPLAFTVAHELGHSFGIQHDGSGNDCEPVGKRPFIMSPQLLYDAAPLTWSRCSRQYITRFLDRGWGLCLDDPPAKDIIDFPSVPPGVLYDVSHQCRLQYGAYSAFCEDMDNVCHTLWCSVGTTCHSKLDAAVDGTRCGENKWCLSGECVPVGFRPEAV
Procedure: Purified recombinant ADAMTS-7 (as of SEQ ID No. 01 or SEQ ID No. 02) was diluted in reaction buffer (20 mM HEPES pH 8.0, 150 mM NaCl, 5 mM CaCl2, 0.004% Brij, 10 μM ZnCl2) fora concentration of approximately 20 nM. 25 μl of the solution were transferred into each well of a 384-well white microtiter plate (Greiner Bio-One 781075) and 1 μl test compound solution (modulator/inhibitor dissolved in DMSO, at the corresponding concentration) or pure DMSO as a control were added per well. […] Amino acids […] are derived from Thrombospondin-1 sequence (275-289). An additional carboxyl glutamic acid was added after the QXL520 quencher to increase substrate solubility. The microtiter plate was incubated for 120 min at the temperature of 32° C. The increase of fluorescence intensity was measured in appropriate fluorescence plate reader (e.g. TECAN Ultra) using excitation wavelength of 485 nm and emission wavelength of 520 nm. IC50 values were calculated from percentage of inhibition of ADAMTS-7 activity as a function of test compound concentration.

Row | SMILES | IC50 (ADAMTS4) | IC50 [1]
1 | O=C1NC(=O)C(CNC(=O)c2cnn(-c3ccccc3)n2)(CC2CC2)N1 (racemic) [Example 54, rac-N-[(4-(cyclopropylmethyl)-2,5-dioxoimidazolidin-4-yl)methyl}]-2-phenyl-2H-1,2,3-triazole-4-carboxamide] | 25 µM | 0.67 µM
2 | O=C1NC(=O)C(CNC(=O)c2cnn(-c3ccccc3)n2)(C2CCOCC2)N1 (racemic) [Example 61, rac-N-[(4-(oxan-4-yl)-2,5-dioxoimidazolidin-4-yl)methyl]-2-phenyl-2H-1,2,3-triazole-4-carboxamide] | 9.95 µM | 0.128 µM
3 | CC(C)(C)C1(CNC(=O)c2cnn(-c3ccc(F)cc3)n2)NC(=O)NC1=O (racemic) [Example 63, rac-N-[(4-tert-butyl-2,5-dioxoimidazolidin-4-yl)methyl]-2-(4-fluorophenyl)-2H-1,2,3-triazole-4-carboxamide] | 6 µM | 0.069 µM
4 | CCCCC1(CNC(=O)c2cnn(-c3ccc(F)cc3)n2)NC(=O)NC1=O (racemic) [Example 68, rac-N-[(4-butyl-2,5-dioxoimidazolidin-4-yl)methyl]-2-(4-fluorophenyl)-2H-1,2,3-triazole-4-carboxamide] | 8.3 µM | 0.12 µM
5 | O=C1NC(=O)C(CNC(=O)c2cnn(-c3ccc(F)cc3)n2)(C2CCC2)N1 (racemic) [Example 69, rac-N-[(4-cyclobutyl-2,5-dioxoimidazolidin-4-yl)methyl]-2-(4-fluorophenyl)-2H-1,2,3-triazole-4-carboxamide] | 35 µM | 0.098 µM
6 | CC(C)C1(CNC(=O)c2cnn(-c3ccc(F)cc3F)n2)NC(=O)NC1=O (racemic) [Example 87, rac-2-(2,4-difluorophenyl)-N-[(4-isopropyl-2,5-dioxoimidazolidin-4-yl)methyl]-2H-1,2,3-triazole-4-carboxamide] | 20 µM | 0.098 µM

Continued by falling IC50 (ADAMTS4), values first:

Row | IC50 (ADAMTS4) | IC50 [1] | SMILES
7 | 19 µM | 0.24 µM | CCCC1(CNC(=O)c2cnn(-c3ccccc3)n2)NC(=O)NC1=O (racemic) [Example 55, rac-N-[(2,5-dioxo-4-propylimidazolidin-4-yl)methyl]-2-phenyl-2H-1,2,3-triazole-4-carboxamide]
8 | 19 µM | 0.17 µM | CCCC1(CNC(=O)c2cnn(-c3ccc(F)cc3)n2)NC(=O)NC1=O (racemic) [Example 65, rac-N-[(2,5-dioxo-4-propylimidazolidin-4-yl)methyl]-2-(4-fluorophenyl)-2H-1,2,3-triazole-4-carboxamide]
9 | 16 µM | 0.042 µM | CC(C)C1(CNC(=O)c2cnn(-c3ccc(F)cc3)n2)NC(=O)NC1=O (racemic) [Example 62, rac-N-[(2,5-dioxo-4-(propan-2-yl)imidazolidin-4-yl)methyl]-2-(4-fluorophenyl)-2H-1,2,3-triazole-4-carboxamide]
10 | 9.3 µM | 0.26 µM | O=C1NC(=O)C(CNC(=O)c2cnn(-c3ccc(F)cc3)n2)(C2CCOCC2)N1 (racemic) [Example 67, rac-2-(4-fluorophenyl)-N-[4-(oxan-4-yl)-2,5-dioxoimidazolidin-4-yl)methyl]-2H-1,2,3-triazole-4-carboxamide]
11 | 6 µM | 0.052 µM | CC(C)C1(CNC(=O)c2cnn(-c3cc(F)c(F)c(F)c3)n2)NC(=O)NC1=O (racemic) [Example 99, rac-N-[(4-isopropyl-2,5-dioxoimidazolidin-4-yl)methyl]-2-(3,4,5-trifluorophenyl)-2H-1,2,3-triazole-4-carboxamide]
12 | 5.6 µM | 0.55 µM | CC(C)(C)C1(CNC(=O)c2cnn(-c3ccccc3)c2)NC(=O)NC1=O (racemic) [Example 58, rac-N-[4-tert-butyl-2,5-dioxoimidazolidin-4-yl)methyl]-1-phenyl-1H-pyrazole-4-carboxamide]
